Test results from patent publication US12344610B2, “APOL1 inhibitors and methods of use” (Maze Therapeutics, Inc., priority 2022, dated 2025).

Key:
Assay type in all cases: cell-based
APOL1 G2 = target: T1, APOL1 G2 (Homo sapiens, UniProt O14791, DEL388-389); experiment: APOL1-mediated calcium transport (calcium influx) assay, HEK T-REx/GCaMP6f/APOL1 G2 K6.3 cells, FLIPR TETRA; settings: prevention of calcium influx; geometric mean of at least 2 assay runs; † = average of a technical replicate from a single assay run
T1 construct: expressed in transfected cells; host or cells: HEK293 T-REx clonal line stably expressing GCaMP6f (HEK T-REx/GCaMP6f/APOL1 G2 K6.3), doxycycline induced
T1 sequence (O14791 with tags, fused parts or gaps DEL388-389): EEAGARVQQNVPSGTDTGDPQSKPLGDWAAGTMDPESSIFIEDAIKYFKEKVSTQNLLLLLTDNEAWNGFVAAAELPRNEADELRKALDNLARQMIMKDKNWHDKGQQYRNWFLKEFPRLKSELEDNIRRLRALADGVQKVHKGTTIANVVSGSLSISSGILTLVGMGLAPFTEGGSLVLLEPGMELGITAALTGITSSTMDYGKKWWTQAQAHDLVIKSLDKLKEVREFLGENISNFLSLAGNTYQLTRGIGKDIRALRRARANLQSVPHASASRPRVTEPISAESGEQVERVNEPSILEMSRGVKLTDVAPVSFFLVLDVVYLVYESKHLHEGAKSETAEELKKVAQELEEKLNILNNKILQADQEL
Summary of the method: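 A HEK293 T-REx clone stably expressing GCaMP6f had APOL1 G2 induced with doxycycline (20 ng/mL solution added) for 6 h. Cells were then washed into Ca2+-free Tyrode's buffer (pH 7.4) and preincubated with compounds (duplicate 8-point) for 10 min at room temperature. Ca2+ injection to 5 mM final produced FLIPR GCaMP fluorescence, giving AC50 for influx inhibition (geometric mean, ≥2 runs).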

[1] = test system: HEK293 cells overexpressing APOL1 G2; experiment: APOL1 G2 HEK293 cell rescue assay (reversal of cell death caused by overexpression of APOL1); settings: Homo sapiens, HEK293, HEK293 overexpressing APOL1 G2; geometric mean of at least 2 assay runs; † = single assay run
Summary of the method: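 EC50 is the half-maximal effective concentration for reversing cell death driven by APOL1 G2 overexpression in HEK293 cells. Reported as geometric mean of at least 2 runs on separate days, each run averaging duplicate wells per plate; some values from a single run.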

[2] = test system: HEK293 clonal cell line overexpressing APOL1 G1; experiment: APOL1 G1 HEK293 cell rescue assay (Example B3); settings: Homo sapiens, HEK293, HEK293 clonal line overexpressing APOL1 G1; geometric mean of at least 2 runs; † = single run; ¥ = concentration at 50% rescue estimated (no sigmoidal curve)
Summary of the method: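 HEK293 clonal line overexpressing APOL1 G1; EC50 is half-maximal reversal of APOL1-induced cell death. Values are the geometric mean of ≥2 runs on separate days, each run the average of duplicate wells. Where no sigmoidal curve could be fitted, the concentration giving 50% rescue was estimated.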

Compound	AC50 (APOL1 G2)	EC50 [1]	EC50 [2]
CC(C)(C(N)=O)c1ccc(OCCN2CCC3(CC2)C(=O)Nc2ccc(C#N)cc23)cc1 [Compound 257, 2-[4-(2-{5-cyano-2-oxo-1,2-dihydrospiro[indole-3,4′-piperidin]-1′-yl}ethoxy)phenyl]-2-methylpropanamide]	974 nM	256 nM	~1000 nM
NC(=O)c1ncc(OCCN2CCC3(CC2)C(=O)Nc2ccc(Cl)cc23)cn1 [Compound 258, 5-(2-{5-chloro-2-oxo-1,2-dihydrospiro[indole-3,4′-piperidin]-1′-yl}ethoxy)pyrimidine-2-carboxamide]	1050 nM	444 nM	~1300 nM
CC(COc1ccc(C2(S(C)(=O)=O)COC2)cc1)N1CCC2(CC1)C(=O)Nc1ccc(C#N)cc12 (stereo not drawn) [Compound 262, 1′-{1-[4-(3-methanesulfonyloxetan-3-yl)phenoxy]propan-2-yl}-2-oxo-1,2-dihydrospiro[indole-3,4′-piperidine]-5-carbonitrile]	2390 nM	299 nM	1780 nM
CN(C)c1ncc(OCCN2CCC3(CC2)C(=O)Nc2ccc(Cl)cc23)cn1 [Compound 303, 5-chloro-1′-(2-{[2-(dimethylamino)pyrimidin-5-yl]oxy}ethyl)-1,2-dihydrospiro[indole-3,4′-piperidin]-2-one]	822 nM	156 nM	351 nM
O=C1Nc2ccc(Cl)cc2C12CCN(CCOc1cnc(N3CC4(C3)CS(=O)(=O)C4)nc1)CC2 [Compound 304, 6-[5-(2-{5-chloro-2-oxo-1,2-dihydrospiro[indole-3,4′-piperidin]-1′-yl}ethoxy)pyrimidin-2-yl]-2λ^6-thia-6-azaspiro[3.3]heptane-2,2-dione]	1010 nM	134 nM	286 nM
CC1(O)CC(N2C(=O)CCc3cc(OCCN4CCC5(CC4)C(=O)Nc4ccc(Cl)cc45)cnc32)C1 (stereo not drawn) [Compound 315, 5-chloro-1′-(2-{[8-(3-hydroxy-3-methylcyclobutyl)-7-oxo-5,6,7,8-tetrahydro-1,8-naphthyridin-3-yl]oxy}ethyl)-1,2-dihydrospiro[indole-3,4′-piperidin]-2-one]	330 nM	25.7 nM	86 nM
O=C1CCc2cc(OCCN3CCC4(CC3)C(=O)Nc3ccc(C(F)F)cc34)cnc2N1C1CC(CO)C1 (stereo not drawn) [Compound 316, 5-(difluoromethyl)-1′-[2-({8-[3-(hydroxymethyl)cyclobutyl]-7-oxo-5,6,7,8-tetrahydro-1,8-naphthyridin-3-yl}oxy)ethyl]-1,2-dihydrospiro[indole-3,4′-piperidin]-2-one]	1150 nM	32.7 nM	99.4 nM
CC1(O)CC(CN2C(=O)CCc3cc(OCCN4CCC5(CC4)C(=O)Nc4ccc(C(F)F)cc45)cnc32)C1 (stereo not drawn) [Compound 320, 5-(difluoromethyl)-1′-[2-({8-[(3-hydroxy-3-methylcyclobutyl)methyl]-7-oxo-5,6,7,8-tetrahydro-1,8-naphthyridin-3-yl}oxy)ethyl]-1,2-dihydrospiro[indole-3,4′-piperidin]-2-one]	787 nM	22.1 nM	53.9 nM
[2H]C([2H])([2H])N1C(=O)C2(CCN(CCOc3ccc(C4CCN(S(C)(=O)=O)CC4)cc3)CC2)c2cc(Cl)ccc21 [Compound 412, 5-chloro-1′-{2-[4-(1-methanesulfonylpiperidin-4-yl)phenoxy]ethyl}-1-(^2H3)methyl-1,2-dihydrospiro[indole-3,4′-piperidin]-2-one]	2900 nM	45.3 nM	70.7 nM
[2H]C([2H])([2H])N1C(=O)C2(CCN(CCOc3ccc(S(C)(=O)=NC)c(C(F)(F)F)c3)CC2)c2cc(Cl)ccc21 (stereo not drawn) [Compound 413, 5-chloro-1-(^2H3)methyl-1′-(2-{4-[methyl(methylimino)oxo-λ^6-sulfanyl]-3-(trifluoromethyl)phenoxy)ethyl)-1,2-dihydrospiro[indole-3,4′-piperidin]-2-one]	251 nM	60.3 nM	208 nM
[2H]C([2H])([2H])N1C(=O)C2(CCN(CCOc3ccc(C4(S(=O)(=O)C(C)C)COC4)cc3)CC2)c2cc(Cl)ccc21 [Compound 414, 5-chloro-1-(^2H3)methyl-1′-(2-{4-[3-(propane-2-sulfonyl)oxetan-3-yl]phenoxy}ethyl)-1,2-dihydrospiro[indole-3,4′-piperidin]-2-one]	347 nM	36.7 nM	110 nM
[2H]C([2H])([2H])N1C(=O)C2(CCN(CCOc3ccc(C4(S(C)(=O)=O)CCC4)cc3)CC2)c2cc(Cl)ccc21 [Compound 415, 5-chloro-1′-{2-[4-(1-methanesulfonylcyclobutyl)phenoxy]ethyl}-1-(^2H3)methyl-1,2-dihydrospiro[indole-3,4′-piperidin]-2-one]	319 nM	20.3 nM	69.2 nM
[2H]C([2H])([2H])N1C(=O)C2(CCN(CCOc3ccc4c(c3)CN(C)C4=O)CC2)c2cc(Cl)ccc21 [Compound 416, 5-chloro-1-(^2H3)methyl-1′-{2-[(2-methyl-1-oxo-2,3-dihydro-1H-isoindol-5-yl)oxy]ethyl}-1,2-dihydrospiro[indole-3,4′-piperidin]-2-one]	449 nM	169 nM	382 nM
[2H]C([2H])([2H])N1C(=O)C2(CCN(CCOc3cnc4c(c3)CCC(=O)N4CC(C)(C)O)CC2)c2cc(Cl)ccc21 [Compound 417, 5-chloro-1′-(2-{[8-(2-hydroxy-2-methylpropyl)-7-oxo-5,6,7,8-tetrahydro-1,8-naphthyridin-3-yl]oxy}ethyl)-1-(^2H3)methyl-1,2-dihydrospiro[indole-3,4′-piperidin]-2-one]	343 nM	49.2 nM	104 nM
[2H]C([2H])([2H])N1C(=O)C2(CCN(CCOc3ccc(S(C)(=O)=O)cc3)CC2)c2cc(Cl)ccc21 [Compound 418]	309 nM	78.5 nM	215 nM
[2H]C([2H])([2H])N1C(=O)C2(CCN(CCOc3cnc4c(c3)CCC(=O)N4[C@H]3C[C@@](C)(O)C3)CC2)c2cc(Cl)ccc21 [Compound 419, 5-chloro-1-(^2H3)methyl-1′-[2-({7-oxo-8-[(1r,3s)-3-hydroxy-3-methylcyclobutyl]-5,6,7,8-tetrahydro-1,8-naphthyridin-3-yl}oxy)ethyl]-1,2-dihydrospiro[indole-3,4′-piperidin]-2-one]	383 nM	30.9 nM	108 nM
[2H]C([2H])([2H])N1C(=O)C2(CCN(CCOc3cnc(C4(CO)CC4)nc3)CC2)c2cc(Cl)ccc21 [Compound 420, 5-chloro-1′-[2-({2-[1-(hydroxymethyl)cyclopropyl]pyrimidin-5-yl}oxy)ethyl]-1-(^2H3)methyl-1,2-dihydrospiro[indole-3,4′-piperidin]-2-one]	892 nM	64.7 nM	144 nM
[2H]C([2H])([2H])N1C(=O)C2(CCN(CCOc3cc(F)c4c(c3)CCNS4(=O)=O)CC2)c2cc(Cl)ccc21 [Compound 421, 6-{2-[5-chloro-1-(^2H3)methyl-2-oxo-1,2-dihydrospiro[indole-3,4′-piperidin]-1′-yl]ethoxy}-8-fluoro-3,4-dihydro-2H-1λ^6,2-benzothiazine-1,1-dione]	564 nM	34.5 nM	83.3 nM
[2H]C([2H])([2H])N1C(=O)C2(CCN(CCOc3cnc4c(c3)CCC(=O)N4[C@H]3C[C@@H](O)C3)CC2)c2cc(Cl)ccc21 [Compound 423, 5-chloro-1-(^2H3)methyl-1′-[2-({7-oxo-8-[(cis)-3-hydroxycyclobutyl]-5,6,7,8-tetrahydro-1,8-naphthyridin-3-yl}oxy)ethyl]-1,2-dihydrospiro[indole-3,4′-piperidin]-2-one]	284 nM	59.3 nM	116 nM
[2H]C([2H])([2H])N1C(=O)C2(CCN(CCOc3cnc(C4(S(C)(=O)=O)CC4)nc3)CC2)c2cc(Cl)ccc21 [Compound 424, 5-chloro-1′-(2-{[2-(1-methanesulfonylcyclopropyl)pyrimidin-5-yl]oxy}ethyl)-1-(^2H3)methyl-1,2-dihydrospiro[indole-3,4′-piperidin]-2-one]	895 nM	50.2 nM	112 nM
[2H]C([2H])([2H])N1C(=O)C2(CCN(CCOc3cnc(C(C)S(C)(=O)=O)nc3)CC2)c2cc(Cl)ccc21 (stereo not drawn) [Compound 425, 5-chloro-1′-(2-{[2-(1-methanesulfonylethyl)pyrimidin-5-yl]oxy}ethyl)-1-(^2H3)methyl-1,2-dihydrospiro[indole-3,4′-piperidin]-2-one]	1100 nM	90.6 nM	271 nM
